Test system: mouse and human MHC class II molecules
Test: Competitive assay for MHC class II binding, alleles taken together
Conditions: competition with known conventional peptide antigens that bind to the class II groove

## H2B10–33: epitope for other pathogenic Th cells of lupus, localized in histone H2B10–33
  binding to class II alleles (in words): did not show promiscuous binding

— PMC2212116 (The Journal of Experimental Medicine, 1998)
